Data on one compound can be found in patent US10709757B2, “Pharmaceutical composition for anti-angiogenesis containing cyclic pentadepsipeptide as an effective ingredient” (CHUNG-ANG UNIVERSITY INDUSTRY-ACADEMIC COOPERATION …, priority 2017, dated 2020).

Series [1] concerns HUVECs. In words: Transwell invasion assay. The class given is cell-based, human. Particulars: VEGF 50 ng/ml, 24 hours, FIG. 5. As for the experimental part: An experiment was performed by using a modified Boyden chamber prepared with a polycarbonate nucleopore membrane (Corning, Corning, N.Y.). After trypsin-EDTA was added to the cells, the cells were collected, the cells were measured by using a hematocytometer, and then the concentration was set to 4×10^5 cells/ml, and the cells were respectively aliquoted. After 700 μl of the medium was added to the bottom well and an insert was placed thereon, 100 μl of cells prepared with neo-N-methylsansalvamide (NMSSV) at various concentrations were aliquoted into the insert in the presence of VEGF (50 ng/ml) and cultured in an incubator at 37° C. for 24 hours. […] After the cells, which succeeded in passing through the gelatin, were fixed with 4% paraformaldehyde, the cells were stained by using crystal violet, washed twice with PBS, and then placed on a glass plate. Thereafter, the cells were observed by using a microscope, and arbitrary five points were marked, photographed, and observed.
(§1) Subsequently, the migration and invasion of endothelial cells is also a main step of angiogenesis leading to the formation of new blood vessels, so that effects of P2 on mobility and invasiveness of VEGF-induced HUVECs were checked by using a wound-healing migration assay and a Transwell invasion assay.

For series [2], the system named is C57BL/6 mice. In words: Laser-induced CNV mouse model, isolectin B4 immunofluorescence staining. The conditions noted are these: intravitreal injection once, 2 weeks after laser, vs control, FIG. 9. The class given is in vivo. As for the experimental part:
(§2) More specifically, male 6-week-old C57BL/6 mice were purchased from Orient Bio Inc., and acclimated for 1 week, and then anesthetized, and the pupils were dilated. Subsequently, an animal model was prepared by irradiating the space around the ophthalmic nerves in 12, 3, 6, and 9 o'clock directions with diode green laser (532 nm, 200 mW, 0.8 sec, 50 μm, and photocoagulator) to cause injury to 3 to 4 sites per eyeball.
(§3) After injury was caused to mice with laser by the method in Example 1-9-1 and the mice were anesthetized one day later, 2 μL was administered into the vitreous body of both eyes once (intravitreal injection) using a 34 gauge needle. Subsequently, 14 days after the irradiation with laser, angiography and staining and imaging of CNV were performed.
14 days after the irradiation with laser, eyeballs were extracted from the mice, and then fixed in 4% paraformaldehyde for 1 hour. […] Thereafter, after the complex tissue was washed with PBS, the tissue with a fluorescence mounting medium (Vector, USA) was fixed on a slide glass, and then covered with a cover slip, and the tissue was observed and photographed through a fluorescence microscope. The CNV lesion area was measured by using Image-Pro Plus software. […]

In series [3] the test system is ERK1/2. Kind of series: Phosphorylation assay of ERK1/2 in VEGF-induced HUVECs (Western). In kind it is cell-based, human. The conditions noted are these: VEGF 50 ng/ml, FIG. 2. The method, then: (§4) After being cultured to 80-90% confluence, human umbilical vein endothelial cells (HUVECs) were additionally cultured in an M199 medium supplemented with 1% FBS for 6 hours, and then treated with neo-N-methylsansalvamide (NMSSV) at various concentrations in the presence of VEGF (50 ng/ml) for 10 minutes. Effects of neo-N-methylsansalvamide (NMSSV) in the phosphorylation assay of ERK1/2, AKT, and eNOS of HUVEC cells were measured by a Western assay method using each antibody.
(§5) In this case, the HUVECs were pre-cultured for 10 minutes prior to the VEGF stimulation and along with P2 for 40 minutes.

Series [4] has as its system HUVECs. In words: Colony tube formation assay. The class given is cell-based, human. The conditions noted are these: Matrigel, VEGF 50 ng/ml, 24 hours, FIG. 3. The method, then:
After being cultured to 80-90% confluence in a plate covered with Matrigel (Collaborative Biomedical Products, Bedford, Mass.), HUVECs were additionally cultured in an M199 medium supplemented with 1% FBS for 6 hours, and then treated with neo-N-methylsansalvamide (NMSSV) at various concentrations in the presence of VEGF (50 ng/ml) for 24 hours. The tube formation was photographed by using a phase-contrast microscope.
The formation of capillary-like tubular structures by endothelial cells is one of the most essential steps in the development of angiogenesis, and it was checked whether P2 inhibited the formation of capillary-like network structures in HUVECs in Matrigel.

In series [5] the test system is mouse aortic ring. In words: Aortic ring assay (ex vivo VEGF-induced vascularization). The conditions noted are these: in the presence of VEGF, FIG. 6. The method, then: 150 μl of Matrigel was put into a 48-well plate, uniformly spread by shaking the 48-well plate, and hardened in an incubator at 37° C. for 30 minutes. After a C57BL/6 mouse was over-anesthetized with ether and sacrificed, the aorta was extracted and washed with PBS to remove the fat, the resulting aorta was transferred to human endothelial-SFM and excised by using micro scissors. The excised aorta was placed on the hardened Matrigel, 50 μl of Matrigel was dropped on the aorta tissue, and then hardened in an incubator at 37° C. for 30 minutes. 200 μl of a medium including neo-N-methylsansalvamide (NMSSV) and VEGF was each added, and cells were observed while being cultured in a CO2 incubator at 37° C. After treatment with the test material, the cells were cultured for 14 days. On Day 7 and Day 14 of the culture, the cells were observed and photographed by an invert microscope (OLYMPUS, CKX41), and the lengths of the blood vessels produced were measured by photographing the aorta with the Toupview program (OLYMPUS, ver.3.5).
Based on the results in the Examples, the effects of P2 on ex vivo VEGF-induced neovascularization were identified, so that an aortic ring assay was performed in order to check the effects of P2 on the formation of capillary vessels in the presence of VEGF.

The subject of series [6] is eNOS. Kind of series: Phosphorylation assay of eNOS in VEGF-induced HUVECs (Western). The class given is cell-based, human. The conditions noted are these: VEGF 50 ng/ml, FIG. 2. The method, then: as §4, §5
Series [7] relates to AKT. Kind of series: Phosphorylation assay of AKT in VEGF-induced HUVECs (Western). Particulars: VEGF 50 ng/ml, FIG. 2. In kind it is cell-based, human. The method, then:
as §4, §5

For series [8], the system named is C57BL/6 mice. Kind of series: Matrigel plug assay (in vivo VEGF-induced angiogenesis). Also on record: species or system mouse. The conditions noted are these: seven days, FIG. 7. The method, then:
A test material administration group and a VEGF (50 ng/ml) administration group were established, and each group consisted of six 8-week-old C57BL/6 mice. 0.5 ml of Matrigel, 50 U/ml of heparin, and a test material were formulated for use at each concentration right before the administration, and formulated such that VEGF was also included in the test material administration group. Seven days after the administration, a Matrigel plug was extracted, a photograph was taken, the amount of hemoglobin was measured by using the Drabkin method (Drabkin reagent kit 525, Sigma-Aldrich, Louis, Mo.), and purification was performed.
0.6 ml of the test material solution was administered to the dorsal hypodermis of each test animal by using a 1-ml syringe.
Thus, additionally through an in vivo Matrigel plug assay, the effects of P2 on in vivo angiogenesis were checked.

Series [9] relates to HUVECs. In words: Wound-healing migration assay. In kind it is cell-based, human. The conditions noted are these: VEGF 50 ng/ml, 24 hours, FIG. 4. As for the experimental part:
When cells were grown to approximately 90%, the medium was suctioned, and then a line was created by steadily scratching the bottom of the plate with a yellow tip, and then the cells were washed with PBS and treated with neo-N-methylsansalvamide (NMSSV) at various concentrations in the presence of VEGF (50 ng/ml) for 24 hours. After 24 hours, the tendency of cells to migrate at each treatment concentration was photographed and observed by marking the position under a microscope at 40× magnification.
as §1

Series [10] has as its system human umbilical vein endothelial cells (HUVECs). In words: MTT assay, VEGF-induced proliferation of HUVECs. In kind it is cell-based. Particulars: 24 hours. The method, then:
After being cultured to 80-90% confluence, human umbilical vein endothelial cells (HUVECs) were additionally cultured in an M199 medium supplemented with 1% FBS for 6 hours, and then treated with neo-N-methylsansalvamide (NMSSV) at various concentrations in the presence of VEGF (50 ng/ml) for 24 hours. Effects of neo-N-methylsansalvamide (NMSSV) on the viability and growth inhibition of the HUVEC cells were measured by a 3-(4,5-dimethylthiazol-2-yl)-2,5-diphenyltetrazolium bromide (MTT) assay method.
In order to identify the effects of the neo-N-methylsansalvamide (NMSSV, Peak 2, hereinafter, referred to as P2) of the present invention on the proliferation in VEGF-induced HUVECs, it was confirmed that cells were proliferated by culturing the cells with P2 at various concentrations in the presence or absence of VEGF (50 ng/ml) by the method in Example 1-2 and performing an MTT assay 24 hours after the culture.
Background: Tetrazolium assays rely on reduction of a dye to a coloured formazan, in cell work by metabolically active cells.

Series [11] concerns C57BL/6 mice. Kind of series: Laser-induced choroidal neovascularization (CNV) mouse model, angiography. The class given is in vivo. Particulars: intravitreal injection once, 14 days after laser, vs control, FIG. 8. The method, then: as §2, §3
14 days after the irradiation with laser, the mice experienced mydriasis and were systemically anesthetized by injecting 80 mg/kg of alfaxalone into the abdominal cavities of the mice, and then 1% fluorescein was intraperitoneally injected into the mice. And then, after the mice were photographed by using a Micron IV device, the CNV lesion area was measured by using Image-Pro Plus software.
Accordingly, in the animal models prepared by the methods in Examples 1-9, the degree to which the contrast medium was leaked according to the administration of NMSSV was compared with that of the control.

For the compound `CC(C)CC1OC(=O)[C@H](Cc2ccccc2)NC(=O)[C@H](CC(C)C)NC(=O)[C@H](C(C)C)NC(=O)[C@H](CC(C)C)N(C)C1=O` (single isomer, unassigned) [P2, neo-N-methylsansalvamide], in [1], the “invasion of HUVECs due to VEGF through Matrigel” value is “blocked”. The “CNV lesion area (isolectin B4 stained area)” value in series [2] is “significantly decreased”. In addition, the “phosphorylation of ERK1/2 induced by VEGF” value in [3] is “inhibited the phosphorylation”. Further, the “VEGF-induced colony tube formation in HUVECs” value in series [4] is on record as “significantly inhibited”. Further, the “formation of VEGF-induced blood vessels in a mouse aortic ring” value in [5] is given as “significantly inhibited”. In addition, in series [6], the “phosphorylation of eNOS induced by VEGF” value is “inhibited the phosphorylation”. In addition, the “phosphorylation of AKT induced by VEGF” value in [7] is given as “inhibited the phosphorylation”. The “content of hemoglobin of Matrigel plug treated with VEGF” value in series [8] (Drabkin method) is “continuously inhibited the content of hemoglobin”. Further, in series [8] (compared to VEGF alone, subcutaneous plug), the “formation of new blood vessels in Matrigel plug” value was “the formation of new blood vessels was decreased”. Moreover, the “VEGF-induced migration of HUVECs” value in series [9] is reported as “significantly decreased”. Besides, the “proliferation of HUVECs induced by VEGF” value in series [10] (VEGF 50 ng/ml, MTT, FIG. 1) is “dose-dependently inhibited”. Besides, in series [10] (at 5 μg/ml of P2, MTT), the “apoptosis (cytotoxicity) in HUVECs” value is listed as “significant apoptosis was not detected”. Moreover, in [11], the “CNV lesion area (angiography)” value is “the CNV lesion area is decreased” and the fluorescein leakage entry is on record as “the fluorescein leakage was decreased”.
